In patent EP0647618A1, “NEW NON IONIC IODINE-CONTAINING DIMERS USEFUL AS X-RAY CONTRAST AGENTS, METHOD FOR THE PREPARATION THEREOF, AND GALENICAL COMPOSITIONS CONTAINING THEM” (CENTRO INVESTIGACION JUSTESA IMAGEN S.A., priority 1993, dated 1994):

Legend:
Assay type in all cases: physicochemical
physchem = conditions: water, 20°C (Table II); read-out: SOLUBILITY IN WATER at 20°
Method: On the other hand, radiologists need compounds with a wide range of uses: for example, angiography, urography, myelography, cisternography, lymphography, cardiography and gastrography. The products according to this invention fulfil the requirements for the above uses, as they have high water solubility, normally higher than 60% (w/v), which, in some cases, is as high as 100% at 20°C, without showing any tendency to crystallize. They also have a very low general toxicity, stated as the average lethal dose for the rat, DL₅₀.

[1] = Osmolality of aqueous solution at 300 mg I/ml; conditions: 300 mg I/ml (Table II)
[2] = Viscosity of aqueous solution at 300 mg I/ml; conditions: 300 mg I/ml (Table II)

Row | Compound | solubility (physchem) [mg/mL] | OSMOLALITY mOsm/kg at 300 mg I/ml [1] [mOsm/kg] | VISCOSITY mPas (37°C) at 300 mg I/ml [2] [mPas]
1 | CN(CC(=O)Nc1c(I)c(C(=O)NCC(O)CO)c(I)c(C(=O)NCC(O)CO)c1I)CC(=O)Nc1c(I)c(C(=O)NCC(O)CO)c(I)c(C(=O)NCC(O)CO)c1I (stereo not shown) [ICJ-2792, N,N'-Bis-{3,5-bis-[N-(2,3-dihydroxypropyl)carbamoyl]-2,4,6-triiodophenyl}-3-methyl-3-azapentanediamide] | < 600 | – | –
2 | CN(C(=O)CN(CCO)CC(=O)Nc1c(I)c(C(=O)NCC(O)CO)c(I)c(C(=O)NCC(O)CO)c1I)c1c(I)c(C(=O)NCCO)c(I)c(C(=O)NCCO)c1I (stereo not shown) [ICJ-2192, N-{3,5-Bis-[N-(2,3-dihydroxpropyl)carbamoyl]-2,4,6-triiodophenyl}-N'-methyl-N'-{3,5-bis-[N-(2-hydroxyethyl)carbamoyl]-2,4,6-triiodophenyl}-3-(2-hydroxyethyl)-3-azapentanediamide] | < 600 | – | –
3 | O=C(CN(CC(=O)Nc1c(I)c(C(=O)NCC(O)CO)c(I)c(C(=O)NCC(O)CO)c1I)CC(O)CO)Nc1c(I)c(C(=O)NCCO)c(I)c(C(=O)NCCO)c1I (stereo not shown) [ICJ-1492, N-{3,5-bis-[N-(2,3-dihydroxypropyl)carbamoyl]-2,4,6-triiodophenyl}-N'-{3,5-bis-[N-(2-hydroxyethyl)carbamoyl]-2,4,6-triiodophenyl)-3-(2,3-dihydroxypropyl)-3-azapentanediamide] | < 600 | 137 | 9.5
4 | COCCN(CC(=O)N(C)c1c(I)c(C(=O)NCC(O)CO)c(I)c(C(=O)NCC(O)CO)c1I)CC(=O)N(C)c1c(I)c(C(=O)NCC(O)CO)c(I)c(C(=O)NCC(O)CO)c1I (stereo not shown) [ICJ-2892, N,N'-Bis-{3,5-bis-[N-(2,3-dihydroxypropyl)carbamoyl]-2,4,6-triiodophenyl}-N,N'-dimethyl-3-(2-methoxymethyl)-3-azapentanediamide] | > 600 | 200 | 10.8
5 | CN(C(=O)CN(CCO)CC(=O)Nc1c(I)c(C(=O)NCCO)c(I)c(C(=O)NCCO)c1I)c1c(I)c(C(=O)NCC(O)CO)c(I)c(C(=O)NCC(O)CO)c1I (stereo not shown) [ICJ-2492, N-{3,5-Bis-[N-(2,3-dihydroxpropyl)carbamoyl]-2,4,6-triiodophenyl}-N-methyl-N'-{3,5-bis-[N-(2-hydroxyethyl)carbamoyl]-2,4,6-triiodophenyl}-3-(2-hydroxyethyl)-3-azapentanediamide] | < 600 | – | –
6 | CN(C(=O)CN(CCO)CC(=O)N(C)c1c(I)c(C(=O)NCCO)c(I)c(C(=O)NCCO)c1I)c1c(I)c(C(=O)NCCO)c(I)c(C(=O)NCCO)c1I [ICJ-2392, N,N'-Bis-{3,5-bis-[N-(2-hydroxethyl)carbamoyl]-2,4,6-triiodophenyl}-N,N'-dimethyl-3-(2-hydroxyethyl)-3-azapentanedimide] | < 600 | – | –
7 | O=C(CN(CCO)CC(=O)Nc1c(I)c(C(=O)NCCO)c(I)c(C(=O)NCCO)c1I)Nc1c(I)c(C(=O)NCCO)c(I)c(C(=O)NCCO)c1I [ICJ-1392, N,N'-Bis-{3,5-bis-[N-(2-hydroxyethyl)carbamoyl]-2,4,6-triiodophenyl}-3-(2-hydroxyethyl)-3-azapentanedimide] | < 600 | – | –
8 | O=C(CN(CCO)CC(=O)Nc1c(I)c(C(=O)NCC(O)CO)c(I)c(C(=O)NCC(O)CO)c1I)Nc1c(I)c(C(=O)NCCO)c(I)c(C(=O)NCCO)c1I (stereo not shown) [ICJ-1292, N-{3,5-Bis-[N-(2,3-dihydroxypropyl)carbamoyl]-2,4,6-triiodophenyl}-N'-{3,5-bis-[N-(2-hydroxyethyl)carbamoyl]-2,4,6-triiodophenyl}-3-(2-hydroxyethyl)-3-azapentanediamide] | < 600 | – | –
9 | COCCN(CC(=O)Nc1c(I)c(C(=O)NCC(O)CO)c(I)c(C(=O)NCC(O)CO)c1I)CC(=O)Nc1c(I)c(C(=O)NCC(O)CO)c(I)c(C(=O)NCC(O)CO)c1I (stereo not shown) [ICJ-2692, N,N'-Bis-{3,5-bis-[N-(2,3-dihydroxypropyl)carbamoyl]-2,4,6-triiodophenyl}-3-(2-methoxyethyl)-3-azapentanediamide] | > 600 | 185 | 9.7
10 | CN(C(=O)CN(CCO)CC(=O)Nc1c(I)c(C(=O)NCC(O)CO)c(I)c(C(=O)NCC(O)CO)c1I)c1c(I)c(C(=O)NCC(O)CO)c(I)c(C(=O)NCC(O)CO)c1I (stereo not shown) [ICJ-1792, N,N'-Bis-{3,5-bis-[N-(2,3-dihydroxypropyl)carbamoyl]-2,4,6-triiodophenyl}-N-methyl-3-(2-hydroxyethyl)-3-azapentanediamide] | > 600 | 157 | 10.6
11 | CN(C(=O)CN(CCO)CC(=O)N(C)c1c(I)c(C(=O)NCC(O)CO)c(I)c(C(=O)NCC(O)CO)c1I)c1c(I)c(C(=O)NCCO)c(I)c(C(=O)NCCO)c1I (stereo not shown) [ICJ-2292, N-{3,5-Bis-[N-(2,3-dihydroxypropyl)carbamoyl]-2,4,6-triiodophenyl}-N'-{3,5-bis-[N-(2-hydroxyethyl)carbamoyl]-2,4,6-triiodophenyl}-N,N'-dimethyl-3-(2-hydroxyethyl)-3-azapentanediamide] | > 600 | 162 | 11.0
12 | CN(C(=O)CN(CCO)CC(=O)Nc1c(I)c(C(=O)NCCO)c(I)c(C(=O)NCCO)c1I)c1c(I)c(C(=O)NC(CO)C(O)CO)c(I)c(C(=O)NC(CO)C(O)CO)c1I (stereo not shown) [ICJ-1892, N{3,5-Bis-[N-(1-hydroxymethyl-2,3-dihydroxypropyl)carbamoyl]-2,4,6-triiodophenyl}-N-methyl-N'-{3,5-bis-[N-(2-hydroxyethyl)carbamoyl]-2,4,6-triiodophenyl}-3-(2-hydroxyethyl)-3-azapentanediamide] | > 600 | 133 | 9.7
13 | CN(C(=O)CN(CCO)CC(=O)Nc1c(I)c(C(=O)NC(CO)C(O)CO)c(I)c(C(=O)NC(CO)C(O)CO)c1I)c1c(I)c(C(=O)NCCO)c(I)c(C(=O)NCCO)c1I (stereo not shown) [ICJ-1992, N-{3,5-Bis-[N-(1-hydroxymethyl-2,3-dihydroxypropyl)carbamoyl]-2,4,6-triiodophenyl}-N'-methyl-N'-{3,5-bis-[N-(2-hydroxyethyl)carbamoyl]-2,4,6-triiodophenyl}-3-(2-hydroxyethyl)-3-azapentanediamide] | > 600 | 164 | 9.1
14 | CN(CC(=O)N(C)c1c(I)c(C(=O)NCC(O)CO)c(I)c(C(=O)NCC(O)CO)c1I)CC(=O)N(C)c1c(I)c(C(=O)NCC(O)CO)c(I)c(C(=O)NCC(O)CO)c1I (stereo not shown) [ICJ-2992, N,N'-Bis-{3,5-bis-[N-(2,3-dihydroxypropyl)carbamoyl]-2,4,6-triiodophenyl}-N,N'-dimethyl-3-methyl-3-azapentanediamide] | > 600 | – | –
15 | O=C(CN(CC(=O)Nc1c(I)c(C(=O)NCCO)c(I)c(C(=O)NCCO)c1I)C(CO)C(O)CO)Nc1c(I)c(C(=O)NCCO)c(I)c(C(=O)NCCO)c1I (stereo not shown) [ICJ-2592, N,N'-Bis-{3,5-bis-[N-(2-hydroxyethyl)carbamoyl]-2,4,6-triiodophenyl}-3-(1-hydroxymethyl-2,3-dihydroxypropyl)-3-azapentanediamide] | > 600 | 180 | 9.1
